The numbers were not newly measured in patent publication US11678683B2, “Processed edible product comprising a polyelectrolyte complex and an antimicrobial compound” (Ceradis B.V., priority 2013, dated 2023), which cites them from elsewhere.

The subject of data set [1] is most fungi.
For data set [2] the following is noted: neutral aqueous systems.

Structures are written as SMILES.

`C[C@@H]1C/C=C/C=C/C=C/C=C/[C@H](O[C@@H]2O[C@H](C)[C@@H](O)[C@H](N)[C@@H]2O)C[C@@H]2O[C@](O)(C[C@@H](O)C[C@H]3O[C@@H]3/C=C/C(=O)O1)C[C@H](O)[C@H]2C(=O)O` [Natamycin, natamycin]: in data set [1], the “MIC (Minimal Inhibitory Concentration)” value is on record as “less than 10 ppm”. Also, in data set [2], the Solubility is on record as 30-40 ppm.
